The values below come from ChEMBL document CHEMBL5120881, “Silencing Tautomerization to Isolate Unstable Physalins from Physalis minima” (J Nat Prod, 2022).

In one data set the test system is RAW264.7. In words: Antiinflammatory activity in mouse RAW264.7 assessed as inhibition of LPS-stimulated NO production pretreated with LPS followed by compund addition by Griess reagent based microplate reader assay. Type of data set: functional, cell-based. The following applies: for IC50: Mus musculus, RAW264.7.
The subject of the next data set is A549. Kind of data set: Antiproliferative activity against human A549 cells assessed as reduction in cell viability incubated for 48 hrs by CCK8 assay. It counts as functional, cell-based. The settings on record: A549, 48 h. A general note: Tetrazolium dyes change colour on reduction, which living cells bring about.
The next data set has as its system HepG2. In words: Antiproliferative activity against human HepG2 cells assessed as reduction in cell viability incubated for 48 hrs by CCK8 assay. Type of data set: functional, cell-based. The following applies: HepG2, 48 h.
The subject of a further data set is MCF7. Kind of data set: Antiproliferative activity against human MCF7 cells assessed as reduction in cell viability incubated for 48 hrs by CCK8 assay. It counts as functional, cell-based. The following applies: MCF7, 48 h.
Data set [1] in a line: Cytotoxicity against mouse RAW264.7 cells assessed as cell viability at 10 uM incubated for 48 hrs by CCK8 assay. The settings on record: read-out: Activity. It counts as toxicity, cell-based.
In another data set the test system is SGC-7901. In words: Antiproliferative activity against human SGC-7901 cells assessed as reduction in cell viability incubated for 48 hrs by CCK8 assay. It counts as functional, cell-based. The settings on record: SGC-7901, 48 h.
A short description of data set [2]: Cytotoxicity against human L02 cells assessed as cell viability at 10 uM incubated for 48 hrs by CCK8 assay. Type of data set: toxicity, cell-based. The settings on record: read-out: Activity.
Data set [3] in a line: Cytotoxicity against human L02 cells assessed as reduction in cell viability incubated for 48 hrs by CCK8 assay. Type of data set: toxicity, cell-based.
Data set [4] in a line: Cytotoxicity against mouse RAW264.7 cells assessed as reduction in cell viability incubated for 48 hrs by CCK8 assay. It counts as toxicity, cell-based.

Each structure is given as a SMILES string.

As a reminder, the IC50 is the concentration that inhibits the measured activity by half. Consider `C=C1C(=O)O[C@@H]2C[C@@]1(C)[C@@H]1C(=O)[C@@]3(O)O[C@]14[C@@]2(C)OC(=O)[C@@]4(O)CC[C@H]1[C@H]3C[C@H]2O[C@]23CC=CC(=O)[C@]13C`, for which, in the data set with RAW264.7, the “inhibition (INH)” value is on record as below 50%. Further, the IC50 in the data set with A549 came to 0.2 µM; in the data set with HepG2, 1.3 µM; with MCF7, 0.9 µM; with SGC-7901, 0.3 µM. In addition, the values for the viability at 48 h, 10 µM in data set [1] and in data set [2] were 85.2% and 90.2%, respectively.

Take `C=C1C(=O)O[C@@H]2C[C@@]1(C)[C@@H]1C(=O)[C@@]3(O)O[C@]14[C@@]2(C)OC(=O)[C@@]4(O)CC[C@H]1[C@H]3C[C@@H](O)[C@@]2(OC)CC=CC(=O)[C@]12C`: the IC50 is 25.6 µM in the data set on RAW264.7; 11.4 µM in the data set on A549; 14 µM with HepG2; 10.6 µM with MCF7; 7.8 µM in the data set on SGC-7901. Moreover, the viability at 48 h, 10 µM in data set [1] was 94.2%; in data set [2] it was 98.1%.

Consider `C=C1C(=O)O[C@@H]2C[C@@]1(C)[C@@H]1C(=O)[C@@]3(O)O[C@]14[C@@]2(C)OC(=O)[C@@]4(O)CC[C@H]1[C@H]3CC=C2C=CCC(=O)[C@@]21C`, for which, in the data set on RAW264.7, the “inhibition (INH)” value is on record as below 50%. For the same compound, the IC50 in the data set with A549 came to 4.2 µM; in the data set with HepG2, 9.4 µM; in the data set on MCF7 it was 1.2 µM; with SGC-7901 it was 9.1 µM. The viability at 48 h, 10 µM in data set [1] came out at 91.4%; in [2], 95.4%.

`C=C1C(=O)O[C@@H]2C[C@@]1(C)[C@@H]1C(=O)[C@@]3(O)O[C@]14[C@@]2(C)OC(=O)[C@@]4(O)CC[C@H]1[C@H]3CC=C2CC=CC(=O)[C@@]21C`: the “inhibition (INH)” value in the data set with RAW264.7 is below 50%. Moreover, the IC50 in the data set on A549 was 8.9 µM; in the data set on HepG2, 13.2 µM; in the data set on MCF7 it was 7.6 µM; in the data set with SGC-7901 it was 2.8 µM. Besides, the viability at 48 h, 10 µM in data set [1] was 90.7%; in data set [2], 94.2%.

For the compound `C[C@@]12C[C@H]3OC(=O)[C@@H]1CO[C@@]14O[C@@]5([C@H]2C1=O)[C@@]3(C)OC(=O)[C@@]5(O)CC[C@H]1[C@H]4C[C@@H](O)[C@@]2(Cl)CC=CC(=O)[C@]12C`, the “inhibition (INH)” value with RAW264.7 is below 50%. Also, the concentration for half-maximal inhibition (IC50) in the data set with A549 came out at 21.7 µM; in the data set on HepG2, 24.7 µM; in the data set on MCF7, 12.5 µM; in the data set with SGC-7901, 12.7 µM. The viability at 48 h, 10 µM in data set [1] stood at 98.3%; in data set [2], 95.3%.

Take `C[C@]12C(=O)C=CCC1=CC[C@@H]1[C@@H]2CC[C@]2(O)C(=O)O[C@@]3(C)[C@H]4C[C@]5(C)[C@@H](CO[C@@]16O[C@@]32[C@H]5C6=O)C(=O)O4` [PHYSALIN B]: the “inhibition (INH)” value in the data set with RAW264.7 was below 50%. Moreover, the IC50 with A549 turned out to be 11.9 µM; in the data set with HepG2, 11.7 µM; in the data set on MCF7, 11.2 µM; in the data set with SGC-7901 it was 12.1 µM. The viability at 48 h, 10 µM in data set [1] stood at 95.8%; in data set [2] it was 97.8%.

With `C=C1C(=O)O[C@@H]2C[C@@]1(C)[C@@H]1C(=O)[C@@]3(O)O[C@]14[C@@]2(C)OC(=O)[C@@]4(O)CC[C@H]1[C@H]3C[C@@H](O)C2=CC=CC(=O)[C@@]21C`, the “inhibition (INH)” value in the data set on RAW264.7 is on record as below 50%. Further, the IC50 turned out to be 7 µM with A549, 8.3 µM in the data set with HepG2, 12.5 µM in the data set with MCF7 and 9.8 µM in the data set with SGC-7901. Moreover, the viability at 48 h, 10 µM in data set [1] came out at 92.3%; in data set [2], 95.2%.

For `C[C@@]12C[C@H]3OC(=O)[C@@H]1CO[C@@]14O[C@@]5([C@H]2C1=O)[C@@]3(C)OC(=O)[C@@]5(O)CC[C@H]1[C@H]4C[C@@H](O)[C@@]2(OC(=O)c3cccnc3)CC=CC(=O)[C@]12C`, the IC50 with RAW264.7 was 13.6 µM; in the data set with A549, above 50 µM; in the data set with HepG2 it was above 50 µM; in the data set with MCF7, above 50 µM; in the data set on SGC-7901, above 50 µM. The IC50 at 48 h in data set [3] and in [4] was above 50 µM throughout.

`C=C1C(=O)O[C@@H]2C[C@@]1(C)[C@@H]1C(=O)[C@@]3(O)O[C@]14[C@@]2(C)OC(=O)[C@@]4(O)CC[C@H]1[C@H]3C[C@@H](O)[C@@]2(Cl)CC=CC(=O)[C@]12C`: in the data set on RAW264.7, the “inhibition (INH)” value was below 50%. Further, the IC50 in the data set on A549 was determined as 2 µM; with HepG2, 4.9 µM; with MCF7 it was 2.1 µM; in the data set with SGC-7901, 1.1 µM. The viability at 48 h, 10 µM in data set [1] is 90.1%; in [2], 98.1%.

As to `C[C@]12C(=O)C=CCC1=CC[C@@H]1[C@@H]2[C@H]2C[C@]3(O)C(=O)O[C@@]4(C)[C@H]5C[C@@]6(C)[C@@H]7[C@@]2(O)[C@@]1(OC[C@H]6C(=O)O5)O[C@@]743`, the IC50 is 9.5 µM in the data set with RAW264.7; above 50 µM in the data set on A549; above 50 µM in the data set on HepG2; above 50 µM in the data set with MCF7; above 50 µM with SGC-7901. Moreover, the IC50 at 48 h in data set [3] and in data set [4] was above 50 µM each time.

Regarding `C[C@@]12C[C@H]3OC(=O)[C@@H]1CO[C@]14O[C@@]5([C@H]2C1=O)[C@@]3(C)OC(=O)[C@@]5(O)CC[C@H]1[C@H]4C[C@@H](O)[C@@]2(O)CC=CC(=O)[C@]12C`, the half-maximal inhibitory concentration (IC50) in the data set with RAW264.7 was 49.8 µM; in the data set with A549, above 50 µM; in the data set on HepG2 it was above 50 µM; in the data set with MCF7 it was above 50 µM; in the data set with SGC-7901, above 50 µM. Also, the IC50 at 48 h in data set [3] and in data set [4] was above 50 µM each time.

Turning to `C[C@]12OC(=O)[C@@]3(O)CC[C@H]4[C@@H](C[C@@H](O)[C@]5(O)CC=CC(=O)[C@]45C)[C@@]45OC[C@H]6C(=O)O[C@@H]1C[C@@]6(CO)[C@H](C4=O)[C@]23O5`, the IC50 was 43.2 µM in the data set on RAW264.7; above 50 µM in the data set on A549; above 50 µM with HepG2; above 50 µM in the data set on MCF7; above 50 µM in the data set on SGC-7901. Also, the IC50 at 48 h in data set [3] and in data set [4] was above 50 µM throughout.

With `C[C@]12C(=O)C=CCC1=CC[C@@H]1[C@@H]2CC[C@]2(O)C(=O)O[C@@]3(C)[C@H]4C[C@@]5(C)[C@@H]6C(=O)[C@@]1(OC[C@@]5(O)C(=O)O4)O[C@@]632`, the IC50 turned out to be 12.2 µM in the data set on A549, 16.8 µM in the data set with HepG2, 10.5 µM in the data set with MCF7 and 12.1 µM in the data set on SGC-7901. Besides, the figures for the viability at 48 h, 10 µM in data set [1] and in data set [2] were 95.5% and 97.3%, respectively.

Turning to `C=C1C(=O)O[C@@H]2C[C@@]1(C)[C@@H]1C(=O)[C@@]3(O)O[C@]14[C@@]2(C)OC(=O)[C@@]4(O)CC[C@H]1[C@H]3[C@H](O)C=C2CC=CC(=O)[C@@]21C`, the 50% inhibitory concentration (IC50) with RAW264.7 was 9.5 µM; in the data set with A549, above 50 µM; in the data set with HepG2, above 50 µM; in the data set on MCF7, above 50 µM; in the data set with SGC-7901, above 50 µM. Besides, the IC50 at 48 h in data set [3] and in data set [4] was above 50 µM each time.

Consider `C[C@@]12C[C@H]3OC(=O)[C@@H]1CO[C@@]14O[C@]56[C@H]2[C@]1(O)[C@H](C[C@]5(O)C(=O)O[C@@]36C)[C@H]1[C@H]4CC[C@]2(O)CC=CC(=O)[C@]12C`, for which the IC50 was 3.6 µM with RAW264.7; above 50 µM in the data set on A549; above 50 µM with HepG2; above 50 µM with MCF7; above 50 µM with SGC-7901. Besides, the IC50 at 48 h in [3] and in [4] was above 50 µM each time.

Take `C[C@]12C(=O)CC=CC1=CC[C@@H]1[C@@H]2CC[C@]2(O)C(=O)O[C@@]3(C)[C@H]4C[C@]5(C)[C@@H](CO[C@]16O[C@@]32[C@H]5C6=O)C(=O)O4`: the “inhibition (INH)” value with RAW264.7 is below 50%. Further, the IC50 in the data set with A549 is 4.3 µM; in the data set with HepG2, 9.8 µM; with MCF7 it was 2.5 µM; in the data set on SGC-7901, 8.9 µM. Besides, the viability at 48 h, 10 µM in data set [1] turned out to be 94.2%; in data set [2], 92.5%.

Regarding `C=C1C(=O)O[C@@H]2C[C@@]1(C)[C@@H]1C(=O)[C@@]3(O)O[C@]14[C@@]2(C)OC(=O)[C@@]4(O)CC[C@H]1[C@H]3C[C@@H](O)[C@@]2(O)CC=CC(=O)[C@]12C`, the “inhibition (INH)” value with RAW264.7 was below 50%. Moreover, the IC50 with A549 was found to be 5.4 µM; in the data set on HepG2, 9.8 µM; in the data set on MCF7 it was 7.3 µM; with SGC-7901, 12.4 µM. Besides, the figures for the viability at 48 h, 10 µM in data set [1] and in data set [2] were 93.5% and 97.5%, respectively.

With `CO[C@]12CC=CC(=O)[C@]1(C)[C@H]1CC[C@]3(O)C(=O)O[C@@]4(C)[C@H]5C[C@]6(C)[C@@H](CO[C@@]7(O[C@@]43[C@H]6C7=O)[C@@H]1C[C@H]2O)C(=O)O5`, the IC50 in the data set on RAW264.7 was 75.3 µM; in the data set with A549, above 50 µM; with HepG2, above 50 µM; in the data set with MCF7 it was above 50 µM; in the data set on SGC-7901 it was above 50 µM. Besides, the IC50 at 48 h in [3] and in [4] was above 50 µM each time.

With `O=C(CCCCCCC(=O)Nc1ccccc1)NO` [VORINOSTAT], the results for the viability at 48 h, 10 µM in [1] and in [2] were 87% and 92.5%, respectively.
